Assays:
tumor [1] = test: 5-FU and oral BAU in tumor-bearing CD8FI mice (Table 5); settings: 5-FU 150 mg/kg/wk
[2] = Toxicity of 5-FU 130 mg/kg/wk in CD8FI female mice with breast tumors (FIG. 1); assay type: in vivo, mouse; settings: mouse, in vivo, iv; 5-FU 130 mg/kg/wk i.v. × 3 weeks
Procedure: (§1) FIG. 1 is a plot showing the toxicity of 5-fluorouracil. Toxicity in the plot is measured as a function of the percent of body weight change over time.
(§2) FIG. 1 establishes that 5-FU administered by i.v. in doses of 130 mg/kg/wk to mice is a toxic dose. Toxicity is determined by a change in body weight. Ten CD8FI female mice with breast tumors were treated with weekly doses of 5-fluorouracil in amounts of 130 mg/kg for three weeks. The percent of body weight change of the mice is shown and plotted over a period of approximately 12 days after administration of the last dose. The mice receiving 130 mg/kg of 5-FU suffered a weight loss of approximately 25% and a mortality of 30%.

breast tumors = test: as above; assay type: in vivo, mouse
Procedure: as §1, §2

tumor [3] = test: Toxicity of 5-FU and tumor weight in tumor-bearing CD8FI female mice (Table 2)
[4] = as above; settings: mouse, in vivo, iv
[5] = Toxic dose of weekly 5-FU and severity of myelosuppression in patients (Table 1); assay type: in vivo, human; settings: for Toxic dose: weekly i.v. 5-FU
Procedure: A representative schedule of clinical administration includes administering weekly i.v. injections of a bolus of 5-FU on an outpatient basis. A typical starting dose is about 500 mg/m^2. Every four weeks the 5-FU dose is increased by 20% until dose-limiting toxicity occurs, which can be indicated by weight loss, or destruction of bone marrow cells and the loss of white blood cells.

phosphorylase = settings: in combination with uridine (Martin et al); cited from earlier work
BAU toxicity in animals = assay type: in vivo; settings: animal data
Procedure: BAU may be administered orally at the rate of 0.5-2 g/m^2 every 4-6 hours for 3 days starting 1/2-2 hours after 5-FU administration, i.e., between 6 g/m^2 /wk and 36 g/m^2 /wk. Based on animal data BAU is non-toxic. Accordingly, it appears that the amounts of BAU which can be administered are not limited by toxic effects and, therefore, increased amounts of BAU may be administered.

thymidylate synthetase = settings: Goodman & Gilman 5th Ed.; cited from earlier work
tumor [6] = test: 5-FU and oral uridine rescue in tumor-bearing CD8FI mice (Table 4); assay type: in vivo, mouse; settings: 5-FU 150 mg/kg weekly
Procedure: (§3) Observations were recorded 6 days after the last injection.
(§4) A second trial was repeated by administering uridine 2 hours after the administration of 5-fluorouracil in a concentration of 780 mg/kg and then 2 1/2 hours later at a concentration of 1,040 mg/kg every 8 hr×5.

[7] = in vivo, cited from earlier work
tumor [8] = test: 5-FU and oral uridine rescue plus BAU in tumor-bearing CD8FI mice (Table 7); assay type: in vivo, mouse; settings: 5-FU 150 mg/kg
Procedure: as §3, §4

[9] = 5-FU 100 mg/kg i.v. weekly × 3, 6 days after last injection
[10] = 5-FU 150 mg/kg i.v. weekly × 3, 6 days after last injection
[11] = patient 1, weekly 5-FU toxic dose 720 mg/m^2
[12] = patient 2, weekly 5-FU toxic dose 600 mg/m^2
[13] = patient 3, weekly 5-FU toxic dose 600 mg/m^2
[14] = patient 4, weekly 5-FU toxic dose 864 mg/m^2
[15] = patient 5, weekly 5-FU toxic dose 864 mg/m^2
[16] = patient 6, weekly 5-FU toxic dose 864 mg/m^2
[17] = patient 7, weekly 5-FU toxic dose 600 mg/m^2
[18] = patient 8 (first), weekly 5-FU toxic dose 720 mg/m^2
[19] = patient 8 (second), weekly 5-FU toxic dose 720 mg/m^2
[20] = then oral UR 600 mg/kg at 2 hrs, then 800 mg/kg q. 8 hr × 5
[21] = then oral UR 780 mg/kg at 2 hrs, then 1,040 mg/kg q. 8 hr × 5
[22] = oral UR 600 then 800 mg/kg q. 8 hr × 5, plus oral BAU 250 mg/kg
[23] = oral UR 780 then 1,040 mg/kg q. 8 hr × 5, plus oral BAU 250 mg/kg

O=c1[nH]cc(F)c(=O)[nH]1 [5-FU, 5-fluorouracil]
lethality of 5-FU (in words) (tumor [1]): lethal dose | Mortality [2]: 30% | weight loss (breast tumors; 5-FU 130 mg/kg/wk i.v. × 3 weeks): approximately 25% | Toxic dose (breast tumors; i.v., mice): 130 mg/kg/wk | Mortality (tumor [3]; [9]): 0/10 | Tumor Weight (tumor [3]; [9]): 688 mgs | Mortality (tumor [3]; [10]): 8/10 | Tumor Weight (tumor [3]; [10]): 433 mgs | MTD [4]: 100 mg/kg | Mortality ([4]; 150 mg/kg): 80% | Nadir at toxicity, Platelets [5, 11]: 1.51e+08 mL⁻¹ | Nadir at toxicity, wbc [5, 11]: 1.6e+06 mL⁻¹ | Nadir at toxicity, Platelets [5, 12]: 1.01e+08 mL⁻¹ | Nadir at toxicity, wbc [5, 12]: 2.7e+06 mL⁻¹ | Nadir at toxicity, Platelets [5, 13]: 7.6e+07 mL⁻¹ | Nadir at toxicity, wbc [5, 13]: 1.4e+06 mL⁻¹ | Nadir at toxicity, Platelets [5, 14]: 1.1e+08 mL⁻¹ | Nadir at toxicity, wbc [5, 14]: 2.8e+06 mL⁻¹ | Nadir at toxicity, Platelets [5, 15]: 2.05e+08 mL⁻¹ | Nadir at toxicity, wbc [5, 15]: 2e+06 mL⁻¹ | Nadir at toxicity, Platelets [5, 16]: 8.4e+07 mL⁻¹ | Nadir at toxicity, wbc [5, 16]: 4.3e+06 mL⁻¹ | Nadir at toxicity, Platelets [5, 17]: 8.2e+07 mL⁻¹ | Nadir at toxicity, wbc [5, 17]: 6.7e+06 mL⁻¹ | Nadir at toxicity, Platelets [5, 18]: 9.5e+07 mL⁻¹ | Nadir at toxicity, wbc [5, 18]: 4.1e+06 mL⁻¹ | Nadir at toxicity, Platelets [5, 19]: 7.4e+07 mL⁻¹ | Nadir at toxicity, wbc [5, 19]: 3.7e+06 mL⁻¹ | Toxic dose ([5]; patient 1, WHO 1, prior chemotherapy None): 720 mg/m^2 | Toxic dose ([5]; patient 2, WHO 1, prior chemotherapy None): 600 mg/m^2 | Toxic dose ([5]; patient 3, WHO 0, prior HAI 5-FU): 600 mg/m^2 | Toxic dose ([5]; patient 4, WHO 2, prior chemotherapy None): 864 mg/m^2 | Toxic dose ([5]; patient 5, WHO 1, prior chemotherapy None): 864 mg/m^2 | Toxic dose ([5]; patient 6, WHO 1, prior HAI 5-FU): 864 mg/m^2 | Toxic dose ([5]; patient 7, WHO 1, prior TGU): 600 mg/m^2 | Toxic dose ([5]; patient 8 (first), WHO 1, prior chemotherapy None): 720 mg/m^2 | Toxic dose ([5]; patient 8 (second), WHO 0, prior FAC): 720 mg/m^2

O=c1[nH]c(=O)n(COCCO)cc1Cc1ccccc1 [BAU, 5-benzylacyclouridine]
effect on uridine breakdown and clearance (phosphorylase): prevents the breakdown of uridine by phosphorylase and the subsequent rapid body clearance of uridine | toxicity (BAU toxicity in animals): non-toxic

O=c1[nH]c(=O)n([C@H]2C[C@H](O)[C@@H](COP(=O)(O)O)O2)cc1F [F-dUMP, 5-fluoro-2'-deoxyuridine-5'-phosphate]
affinity for thymidylate synthetase (thymidylate synthetase): unusually great affinity

O=c1ccn([C@@H]2O[C@H](CO)[C@@H](O)[C@H]2O)c(=O)[nH]1 [uridine]
Mortality (tumor [6]; [20]): 4/10 | Tumor Weight (tumor [6]; [20]): 242 mgs | Mortality (tumor [6]; [21]): 0/10 | Tumor Weight (tumor [6]; [21]): 361 mgs | side effects of intravenous uridine ([7]; iv): fever and phlebitis | side effects of oral uridine in large doses ([7]; po): irritates the gastrointestinal tract, which frequently causes severe diarrhea | catabolism of uridine [7]: quickly catabolized | plasma uridine levels after large doses of uridine [7]: millimolar or high micromolar uridine levels | Mortality (tumor [8]; [22]): 0/10 | Tumor Weight (tumor [8]; [22]): 475 mgs | Mortality (tumor [8]; [23]): 1/10 | Tumor Weight (tumor [8]; [23]): 434 mgs

Reference: patent publication US5543401A (priority 1994, dated 1996)
